Laboratory results taken from US20170275270A1, “BENZYL SUBSTITUTED INDAZOLES” (Bayer Pharma Aktiengesellschaft, priority 2014, published 2017).
pIC50: −log10 of the molar value. Structures can show the parent of a compound that is named as a salt. Where two headings read alike, the source gives them in different places.

Tests used:
[1] = test system: HeLa; assay: Proliferation assay (HeLa cell line); conditions: Homo sapiens, 96 h, read-out: Biological Assay 2: Proliferation assay (HeLa cell line) median IC50;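 also: crystal violet staining of cell number, scaled between a plate stained before dosing (0%) and cells left untreated (100%), compounds tested at 0.001-10 µM, IC50 via 4-parameter fit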
Protocol: Cultivated tumor cells (cells were ordered from ATCC, except HeLa-MaTu and HeLa-MaTu-ADR, which were ordered from EPO-GmbH, Berlin) were plated at a density of 1000 to 5000 cells/well, depending on the growth rate of the respective cell line, in a 96-well multititer plate in 200 μL of their respective growth medium supplemented 10% fetal calf serum. After 24 hours, the cells of one plate (zero-point plate) were stained with crystal violet (see below), while the medium of the other plates was replaced by fresh culture medium (200 μL), to which the test substances were added in various concentrations (0 μM, as well as in the range of 0.001-10 μM; the final concentration of the solvent dimethyl sulfoxide was 0.5%). The cells were incubated for 4 days in the presence of test substances. Cell proliferation was determined by staining the cells with crystal violet: the cells were fixed by adding 20 μL measuring point of an 11% glutaric aldehyde solution for 15 minutes at room temperature. After three washing cycles of the fixed cells with water, the plates were dried at room temperature. The cells were stained by adding 100 μL/measuring point of a 0.1% crystal violet solution (pH 3.0). After three washing cycles of the stained cells with water, the plates were dried at room temperature. The dye was dissolved by adding 100 μl/measuring point of a 10% acetic acid solution. […] The change of cell number, in percent, was calculated by normalization of the measured values to the absorbtion values of the zero-point plate (=0%) and the absorbtion of the untreated (0 μm) cells (=100%). The IC50 values were determined by means of a 4 parameter fit.

[2] = test system: HeLa human cervical tumor cells; assay: Proliferation assay (HeLa+Paclitaxel); conditions: read-out: Biological Assay 3: HeLa + Paclitaxel IC50, 3 nM paclitaxel, crystal violet;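 also: compounds at 0.001-10 µM added 4 h after paclitaxel, 92 h exposure, absorbance normalized to zero-point plate (0%) and untreated cells (100%), IC50 from 4-parameter fit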
Protocol: Proliferation Assay (HeLa+Paclitaxel):
Cultivated HeLa human cervical tumor cells (DSMZ ACC-57) were plated at a density of 3000 cells/well in a 96-well multititer plate in 200 μL of growth medium supplemented 10% fetal calf serum. After 24 hours, the cells of one plate (zero-point plate) were stained with crystal violet (see below). The medium of the other plates was supplemented with 3 nM of paclitaxel (Sigma-Aldrich) and the cells were incubated at 37° C. After 4 hours the test substances were added in various concentrations (0 μM, as well as in the range of 0.001-10 μM; the final concentration of the solvent dimethyl sulfoxide was adjusted to 0.1%) using a Hewlett-Packard HP D300 Digital Dispenser. The cells were incubated for another 92 hours at 37° C. in the presence of test substances. Cell proliferation was determined by staining the cells with crystal violet: the cells were fixed by adding 20 μL/measuring point of an 11% glutaric aldehyde solution for 15 minutes at room temperature. After three washing cycles of the fixed cells with water, the plates were dried at room temperature. The cells were stained by adding 100 μL/measuring point of a 0.1% crystal violet solution (pH 3.0). After three washing cycles of the stained cells with water, the plates were dried at room temperature. The dye was dissolved by adding 100 μL/measuring point of a 10% acetic acid solution. […] The change of cell number, in percent, was calculated by normalization of the measured values to the absorbtion values of the zero-point plate (=0%) and the absorbtion of the untreated (0 μm) cells (=100%). The IC50 values were determined by means of a 4 parameter fit.

[3] = target: T1, catalytic domain of human Bub1 (amino acids 704-1085) (Homo sapiens, UniProt O43683); assay: Bub1 kinase assay (TR-FRET); type: biochemical
T1 construct: catalytic domain of human Bub1 (amino acids 704-1085); His6 (N); made in house; host or cells: Hi5 insect cells
T1 sequence (O43683 704-1085): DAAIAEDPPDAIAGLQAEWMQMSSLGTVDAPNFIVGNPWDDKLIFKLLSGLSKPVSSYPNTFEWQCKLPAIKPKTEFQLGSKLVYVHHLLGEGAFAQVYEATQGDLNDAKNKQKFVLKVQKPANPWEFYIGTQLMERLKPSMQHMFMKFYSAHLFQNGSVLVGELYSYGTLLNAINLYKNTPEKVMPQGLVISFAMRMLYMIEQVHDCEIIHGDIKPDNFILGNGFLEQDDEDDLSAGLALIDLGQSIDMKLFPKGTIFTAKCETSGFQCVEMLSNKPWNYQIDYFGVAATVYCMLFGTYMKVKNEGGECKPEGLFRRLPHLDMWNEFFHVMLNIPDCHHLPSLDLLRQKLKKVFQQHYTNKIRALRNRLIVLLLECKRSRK
Method in brief: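 TR-FRET read-out (Eu-anti-mouse IgG/anti-phosphoserine antibody to streptavidin-XL665 on biotinylated peptide) after EDTA stop and 1 h complex formation at 22° C. Kinase reaction ran 60 min at 22° C with 1:3.4 serial dilutions from 2 mM DMSO stocks. IC50 from 4-parameter logistic fit of normalized inhibition.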

[4] = target: Bub1 (Homo sapiens, UniProt O43683); assay: Formation-Assay: phosphorylation status of histone 2A by inhibition of kinase activity of Bub1; type: cell-based; conditions: Biological Assay 4.1: H2A Formation IC50, co-treatment with Nocodazole 1 μg/ml, 16 h
Sequence of Bub1 (O43683 whole entry): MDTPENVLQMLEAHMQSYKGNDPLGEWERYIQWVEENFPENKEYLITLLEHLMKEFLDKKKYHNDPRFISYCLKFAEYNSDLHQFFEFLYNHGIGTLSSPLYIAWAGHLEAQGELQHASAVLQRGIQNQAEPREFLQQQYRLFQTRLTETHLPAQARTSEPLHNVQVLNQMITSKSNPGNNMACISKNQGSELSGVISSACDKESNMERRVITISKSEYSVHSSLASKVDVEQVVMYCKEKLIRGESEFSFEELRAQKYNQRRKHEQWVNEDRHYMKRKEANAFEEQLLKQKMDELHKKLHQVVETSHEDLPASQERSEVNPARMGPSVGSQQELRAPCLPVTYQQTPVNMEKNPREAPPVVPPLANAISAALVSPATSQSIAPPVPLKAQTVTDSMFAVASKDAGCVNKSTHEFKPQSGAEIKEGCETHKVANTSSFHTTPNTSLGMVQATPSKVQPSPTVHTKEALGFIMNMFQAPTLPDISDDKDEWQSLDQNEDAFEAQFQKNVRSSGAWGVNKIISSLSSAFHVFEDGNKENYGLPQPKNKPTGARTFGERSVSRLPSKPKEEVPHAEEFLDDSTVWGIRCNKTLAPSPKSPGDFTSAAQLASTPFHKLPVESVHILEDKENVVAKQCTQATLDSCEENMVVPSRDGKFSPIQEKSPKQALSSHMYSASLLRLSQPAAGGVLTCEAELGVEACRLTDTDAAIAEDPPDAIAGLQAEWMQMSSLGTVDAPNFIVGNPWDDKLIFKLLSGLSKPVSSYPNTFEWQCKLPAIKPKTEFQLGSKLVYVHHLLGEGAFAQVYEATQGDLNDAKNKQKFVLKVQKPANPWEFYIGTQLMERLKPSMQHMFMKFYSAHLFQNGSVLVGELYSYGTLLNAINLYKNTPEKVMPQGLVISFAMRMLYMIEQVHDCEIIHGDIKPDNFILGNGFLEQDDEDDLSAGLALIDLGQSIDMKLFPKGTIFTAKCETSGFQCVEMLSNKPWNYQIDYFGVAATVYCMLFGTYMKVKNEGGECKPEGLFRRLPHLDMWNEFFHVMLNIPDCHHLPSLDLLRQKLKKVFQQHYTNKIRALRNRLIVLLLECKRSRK
Method in brief: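 Cells co-treated 16 h with Nocodazole (1 μg/ml) and compound (3 nM–10 μM), then fixed and immunostained for phospho-H2A, read by infrared imaging (800 nm) normalised to cell stain (700 nm). Nocodazole-only set as 100%, untreated cells as 0%.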

[5] = Biological Assay 1: Bub1 kinase assay median IC50, 10 μM ATP
[6] = 10 μM ATP, read-out: Biological Assay 1: Bub1 kinase assay median IC50

Structure (SMILES)	pIC50 [1]	pIC50 [2]	pIC50 [3, 5]	pIC50 [4]	pIC50 [3, 6]
CCOc1cc(F)c(Cn2nc(-c3ncc(C4CCN(CC(F)(F)F)CC4)c(Nc4ccncn4)n3)c3ccccc32)c(F)c1 [Example 2-20-3, 2-[1-(4-ethoxy-2,6-difluorobenzyl)-1H-indazol-3-yl]-N-(pyrimidin-4-yl)-5-[1-(2,2,2-trifluoroethyl)piperidin-4-yl]pyrimidin-4-amine]	< 5.00	6.01	7.59	8.66	
CCOc1cc(F)c(Cn2nc(-c3nc(CN4CCOCC4)cc(Nc4ccncc4Cl)n3)c3ccccc32)c(F)c1 [Example 2-12-34, N-(3-chloropyridin-4-yl)-2-[1-(4-ethoxy-2,6-difluorobenzyl)-1H-indazol-3-yl]-6-(morpholin-4-ylmethyl)pyrimidin-4-amine]	5.11	6.30		6.15	7.44
CCOc1cc(F)c(Cn2nc(-c3nc(CN4CCOCC4)cc(Nc4ccncc4)n3)c3ccccc32)c(F)c1 [Example 2-12-12, 2-[1-(4-ethoxy-2,6-difluorobenzyl)-1H-indazol-3-yl]-6-(morpholin-4-ylmethyl)-N-(pyridin-4-yl)pyrimidin-4-amine]	5.44	> 7.00		8.44	8.17
CCOc1cc(F)c(Cn2nc(-c3nc4c(c(Nc5ccnc(C)c5)n3)CN(CC)CC4)c3ccccc32)c(F)c1 [Example 2-15-2, 2-[1-(4-ethoxy-2,6-difluorobenzyl)-1H-indazol-3-yl]-6-ethyl-N-(2-methylpyridin-4-yl)-5,6,7,8-tetrahydropyrido[4,3-d]pyrimidin-4-amine]	< 5.00	7.35	7.33	7.41	
Cc1nccc(Nc2nc(-c3nn(Cc4c(F)cc(OCCO)cc4F)c4ccccc34)nc3c2CCC(C)(C)C3)n1 [Example 2-6-24, 2-{4-[(3-{7,7-dimethyl-4-[(2-methylpyrimidin-4-yl)amino]-5,6,7,8-tetrahydroquin-azolin-2-yl}-1H-indazol-1-yl)methyl]-3,5-difluorophenoxy} ethanol]	< 5.00	6.82	6.92	7.85	
OCCOc1cc(F)c(Cn2nc(-c3nc(CN4CCOCC4)cc(Nc4ccnnc4)n3)c3ccccc32)c(F)c1 [Example 2-6-37, 2-[3,5-difluoro-4-({3-[4-(morpholin-4-ylmethyl)-6-(pyridazin-4-ylamino)pyrimidin-2-yl]-1H-indazol-1-yl}methyl)phenoxy]ethanol]	5.02	5.64		6.59	7.40
OCCOc1cc(F)c(Cn2nc(-c3nc(CN4CCOCC4)cc(Nc4ccncc4)n3)c3ccccc32)c(F)c1 [Example 2-6-38, 2-[3,5-difluoro-4-({3-[4-(morpholin-4-ylmethyl)-6-(pyridin-4-ylamino)pyrimidin-2-yl]-1H-indazol-1-yl}methyl)phenoxy]ethanol]	< 5.00	6.03		5.64	8.00
C[S@@+]([O-])CCCc1cnc(-c2nn(Cc3c(F)cc(OCCO)cc3F)c3ccccc23)nc1Nc1ccncc1 [Example 2-4-3, 2-[3,5-difluoro-4-({3-[5-{3-[(R)-methylsulfinyl]propyl}-4-(pyridin-4-ylamino)pyrimidin-2-yl]-1H-indazol-1-yl}methyl)phenoxy]ethanol]	< 5.00	< 5.00	6.03	6.00	
CCOc1cc(F)c(Cn2nc(-c3nc4c(c(Nc5ccncc5)n3)CSC4)c3ccccc32)c(F)c1 [Example 2-19-1, 2-[1-(4-ethoxy-2,6-difluorobenzyl)-1H-indazol-3-yl]-N-(pyridin-4-yl)-5,7-dihydrothieno[3,4-d]pyrimidin-4-amine]	5.92	6.46		6.46	7.85
CCOc1cc(F)c(Cn2nc(-c3ncc(CC4CNC4)c(Nc4ccnc(NC(C)=O)c4)n3)c3ccccc32)c(F)c1 [Example 2-9-7, N-[4-({5-(azetidin-3-ylmethyl)-2-[1-(4-ethoxy-2,6-difluorobenzyl)-1H-indazol-3-yl]pyrimidin-4-yl}amino)pyridin-2-yl]acetamide, salt with hydrochloric acid]	5.00	6.77	8.13	8.17	
CCOc1cc(F)c(Cn2nc(-c3nc4c(c(Nc5ccnc(C(F)F)c5)n3)CCCC4)c3ccccc32)c(F)c1 [Example 2-19-19, N-[2-(difluoromethyl)pyridin-4-yl]-2-[1-(4-ethoxy-2,6-difluorobenzyl)-1H-indazol-3-yl]-5,6,7,8-tetrahydroquinazolin-4-amine]	< 5.00	6.16		8.14	7.72

Continued by rising pIC50 [1], values first:

pIC50 [1]	pIC50 [2]	pIC50 [3, 5]	pIC50 [4]	pIC50 [3, 6]	Structure (SMILES)
5.46	6.35	8.20	6.24		CCOc1cc(F)c(Cn2nc(-c3ncc(CC[S@](C)(=N)=O)c(Nc4ccncc4)n3)c3ccccc32)c(F)c1 [Example 2-7-1, 2-[1-(4-ethoxy-2,6-difluorobenzyl)-1H-indazol-3-yl]-5-[2-(S-methylsulfonimidoyl)ethyl]-N-(pyridin-4-yl)pyrimidin-4-amine]
5.52	6.70	7.74	7.74		CCOc1cc(F)c(Cn2nc(-c3ncc(CCNCC(F)(F)F)c(Nc4ccncc4)n3)c3ccccc32)c(F)c1 [Example 2-16-1, 2-[1-(4-ethoxy-2,6-difluorobenzyl)-1H-indazol-3-yl]-N-(pyridin-4-yl)-5-{2-[(2,2,2-trifluoroethyl)amino]ethyl}pyrimidin-4-amine]
5.64	6.77	7.92	6.10		CCOc1cc(F)c(Cn2nc(-c3ncc(CCCCN4CCOCC4)c(Nc4ccncc4)n3)c3ccccc32)c(F)c1 [Example 2-2-12, 2-[1-(4-ethoxy-2,6-difluorobenzyl)-1H-indazol-3-yl]-5-[4-(morpholin-4-yl)butyl]-N-(pyridin-4-yl)pyrimidin-4-amine]
5.77	6.80	8.21	7.70		CCOc1cc(F)c(Cn2nc(-c3nc4c(c(Nc5ccncc5)n3)CCNC4)c3ccccc32)c(F)c1 [Example 2-18-1, 2-[1-(4-ethoxy-2,6-difluorobenzyl)-1H-indazol-3-yl]-N-(pyridin-4-yl)-5,6,7,8-tetrahydropyrido[3,4-d]pyrimidin-4-amine]
5.85	6.77		7.28	8.04	CCOc1cc(F)c(Cn2nc(-c3nc(CO)cc(Nc4ccncc4C)n3)c3ccccc32)c(F)c1 [Example 2-6-4, {2-[1-(4-ethoxy-2,6-difluorobenzyl)-1H-indazol-3-yl]-6-[(3-methylpyridin-4-yl)amino]pyrimidin-4-yl}methanol]
6.00	6.89	6.54	7.24		CCOc1cc(F)c(Cn2nc(-c3nc4c(c(Nc5ccncc5C)n3)CCN(Cc3ccccc3)C4)c3ccccc32)c(F)c1 [Example 2-12-16, 7-benzyl-2-[1-(4-ethoxy-2,6-difluorobenzyl)-1H-indazol-3-yl]-N-(3-methylpyridin-4-yl)-5,6,7,8-tetrahydropyrido[3,4-d]pyrimidin-4-amine]
